Assay [1] addresses T1, Pseudomonas aeruginosa LpxC enzyme (Pseudomonas aeruginosa, UniProt P47205).
T1 construct: made in house; host or cells: E. coli
T1 sequence (P47205 1-303): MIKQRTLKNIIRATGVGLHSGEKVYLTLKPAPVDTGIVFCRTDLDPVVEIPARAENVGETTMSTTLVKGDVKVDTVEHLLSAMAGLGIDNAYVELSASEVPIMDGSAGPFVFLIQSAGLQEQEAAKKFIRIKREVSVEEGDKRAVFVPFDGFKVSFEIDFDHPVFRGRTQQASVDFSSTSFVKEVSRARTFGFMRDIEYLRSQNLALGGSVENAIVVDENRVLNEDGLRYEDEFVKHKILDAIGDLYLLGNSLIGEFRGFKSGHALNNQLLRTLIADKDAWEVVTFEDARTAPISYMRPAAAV
The assay can be described thus: LpxC enzyme IC50 assay (PA LpxC enzyme IC50), BioTrove RapidFire mass spectrometry. The format is biochemical. On the procedure:
In order to assess the compounds biological activity selected in vitro assays were conducted on selected compounds. One of the assays measured the compounds ability to disrupt the synthesis of lipopolysaccharide, LPS, which is a component of the outer membrane of Gram-negative bacteria. Disruption of this synthesis is lethal to the bacteria. The assay determined the compound's ability to inhibit LpxC, which is the first enzyme in the biosynthetic pathway for LPS (measured as IC50). Additionally, MICs (minimal inhibitory concentrations) were determined for several bacteria. The specific protocols are described below:
A) IC50 Assay LpxC Enzyme from P. aeruginosa Labeled as PA LpxC Enzyme IC50):
At the end of 1 hour, 5 ul of 1 N HCl was added to stop the enzyme reaction, the plates were centrifuged, and then processed with the BioTrove Rapidfire HTMS Mass Spectrometry System. A no-enzyme control was used in calculating the IC50 values from the percent conversion values.

Assay [2] relates to Pseudomonas aeruginosa UC12120 (mouse virulent). The assay can be described thus: MIC determination (CLSI), PA-UC12120. The note with it: UC12120, read-out: PA-UC12120 MIC. It is filed as cell-based. The method, then: (§1) The in vitro antibacterial activity of compounds described in the Examples was evaluated by minimum inhibitory concentration (MIC) testing according to Clinical and Laboratory Standards Institute (CLSI). See: Clinical and Laboratory Standards Institute. Methods for Dilution Antimicrobial Susceptibility Tests for Bacteria that Grow Aerobically; Approved Standard-Eighth Edition. CLSI document M7-A8 [ISBN 1-56238-689-1]. Clinical and Laboratory Standards Institute, 940 West Valley Road, Suite 1400, Wayne, Pa. 19087-1898 USA, 2006; also Clinical and Laboratory Standards Institute. Performance Standards for Antimicrobial Susceptibility Testing; Twentieth Informational Supplement. CLSI document M100-S20 [ISBN1-56238-716-2]. Clinical and Laboratory Standards Institute.
(§2) The MIC determination is a standard laboratory method for evaluating the antibacterial activity of a compound. The MIC represents the lowest drug concentration that inhibits visible growth of bacteria following overnight incubation. […] Typically, the drug concentration range is broken down into 2-fold increments (e.g., 0.06 μg/mL, 0.12 μg/mL. 0.25 μg/mL, 0.50 μg/mL, 1.0 μg/mL, etc.) and the various drug concentrations are all individually incubated overnight with approximately the same number of bacteria. The MIC is then determined by visually inspecting the drug effect at each concentration, and identifying the lowest drug concentration that has inhibited bacterial growth as compared to the drug free control. Typically, bacteria continue to grow at drug concentrations lower than the MIC and don't grow at concentrations at and above the MIC.
(§3) The MIC values described in Tables 4 and 5 below were derived from assays wherein each test compound was evaluated in duplicate. In cases where the duplicate values varied by 0-2-fold, the lower of the two values was reported below. Generally speaking, if the duplicate values varied by more than 2-fold, the assay was considered non-valid and was repeated until the variation between duplicate runs was 2-fold. In line with the CLSI guidelines referred to above, both control organisms and reference compounds were utilized in each MIC assay to provide proper quality control. MIC values generated with these control organisms and reference compounds were required to fall within a defined range for the assay to be considered valid and be included herein. Those skilled in the art will recognize that MIC values can and do vary from experiment to experiment. Generally speaking, it should be recognized that MIC values often vary +/−2-fold from experiment to experiment. While a single MIC is reported for each compound and each microorganism, the reader should not conclude that each compound was only tested once. Several of the compounds were subjected to multiple tests. The data reported in Tables 4 and 5 is reflective of the compound's relative activity and different MICs may have been generated on these occasions in line with the guidelines described above.
(§4) The following bacterial strains were used in these MIC determinations:
1) Pseudomonas aeruginosa UC12120 (mouse virulent) labeled as PA-UC12120 in Tables 4 and 5;

In assay [3] the test system is Escherichia coli EC-1: VOGEL, mouse virulent. The assay can be described thus: MIC determination (CLSI), EC-1. The settings on record: read-out: EC-1 MIC. The format is cell-based. On the procedure:
as §1, §2, §3, §4
2) Escherichia coli EC-1: VOGEL, mouse virulent labeled as EC-1 in Tables 4 and 5;

Assay [4] concerns Acinetobacter baumannii/haemolyticus: Multidrug-resistant clinical isolate AB-3167. Description: MIC determination (CLSI), AB-3167. It is filed as cell-based. The note with it: overnight incubation, duplicate, lower of the two values reported. The method, then: as §1, §2, §3, §4
3) Acinetobacter baumannii/haemolyticus: Multidrug-resistant clinical isolate labeled as AB-3167 in Tables 4 and 5;

The mark [5] stands for this setting: P. aeruginosa LpxC enzyme 0.1 nM, 25° C., 1 hour, pH 8.0, read-out: PA:IC50.

In brackets after ≈: the same amount, converted by molar mass. Like-named read-outs stand apart in the source and are kept apart here.

`CC(CCc1cc(-c2ncccc2F)no1)(C(=O)NO)S(C)(=O)=O` (racemic) [Example 43, 4-[3-(3-fluoropyridin-2-yl)isoxazol-5-yl]-N-hydroxy-2-methyl-2-(methylsulfonyl)butanamide]: in assay [1] (setting [5]), the IC50 (commonly the concentration needed to halve the response being measured) is greater than 100 nM. In addition, the MIC (commonly the lowest concentration found to suppress growth) in assay [2] was 32 µg/mL (≈ 89.5 µM); in assay [3], 64 µg/mL (≈ 179 µM); in assay [4] it was greater than 64 µg/mL.

Turning to `CC(CCc1cc(COCc2ccccc2)on1)(C(=O)NO)S(C)(=O)=O` (racemic) [Example 9, 4-{5-[(benzyloxy)methyl]isoxazol-3-yl}-N-hydroxy-2-methyl-2-(methylsulfonyl)butanamide], in assay [1] (setting [5]), the IC50 amounted to 25.1 nM. In addition, the MIC in assay [2] is 8 µg/mL (≈ 20.9 µM); in assay [3] it was greater than 64 µg/mL; in assay [4] it was greater than 64 µg/mL.

In the case of `COc1cccc(OC)c1-c1cc(CCC(C)(C(=O)NO)S(C)(=O)=O)on1` (racemic) [Example 32, 4-[3-(2,6-dimethoxyphenyl)isoxazol-5-yl]-N-hydroxy-2-methyl-2-(methylsulfonyl)butanamide], in assay [1] (setting [5]), the IC50 is 88.7 nM. Also, the MIC in assay [2], in assay [3] and in assay [4] was greater than 64 µg/mL each time.

As for `COc1ccccc1-c1cc(CCC(C)(C(=O)NO)S(C)(=O)=O)no1` (racemic) [Example 16, N-hydroxy-4-[5-(2-methoxyphenyl)isoxazol-3-yl]-2-methyl-2-(methylsulfonyl)butanamide], the IC50 in assay [1] (setting [5]) is 40.5 nM. The MIC is 16 µg/mL (≈ 43.4 µM) in assay [2], greater than 64 µg/mL in assay [3] and greater than 64 µg/mL in assay [4].

Take `CCOC(=O)N(Cc1cc(CCC(C)(C(=O)NO)S(C)(=O)=O)no1)C(C)C` (racemic) [Example 23, ethyl ({3-[4-(hydroxyamino)-3-methyl-3-(methylsulfonyl)-4-oxobutyl]isoxazol-5-yl}methyl)isopropylcarbamate]: the IC50 in assay [1] (setting [5]) was greater than 100 nM. Further, the MIC in assay [2], in assay [3] and in assay [4] was greater than 64 µg/mL throughout.

Regarding `CC(CCc1cc(-c2ccc3ccccc3n2)no1)(C(=O)NO)S(C)(=O)=O` (racemic) [Example 35, N-hydroxy-2-methyl-2-(methylsulfonyl)-4-(3-quinolin-2-ylisoxazol-5-yl)butanamide], the IC50 in assay [1] (setting [5]) was 22.1 nM. The results for the MIC in assay [2], in assay [3] and in assay [4] were 8 µg/mL (≈ 20.5 µM), 32 µg/mL (≈ 82.2 µM) and greater than 64 µg/mL, respectively.

As for `CC(CCc1cc(-c2ccc(F)cc2)no1)(C(=O)NO)S(C)(=O)=O` (racemic) [Example 44, 4-[3-(4-fluorophenyl)isoxazol-5-yl]-N-hydroxy-2-methyl-2-(methylsulfonyl)butanamide], the IC50 in assay [1] (setting [5]) was determined as 3.8 nM. In addition, the MIC in assay [2] was 1 µg/mL (≈ 2.81 µM); in assay [3], 16 µg/mL (≈ 44.9 µM); in assay [4], greater than 64 µg/mL.

Take `CC(CCc1cc(-c2c(Cl)cccc2Cl)on1)(C(=O)NO)S(C)(=O)=O` (racemic) [Example 10, 4-[5-(2,6-dichlorophenyl)isoxazol-3-yl]-N-hydroxy-2-methyl-2-(methylsulfonyl)butanamide]: in assay [1] (setting [5]), the IC50 came out at 10.5 nM. In addition, the MIC in assay [2] was 64 µg/mL (≈ 157 µM); in assay [3], 8 µg/mL (≈ 19.6 µM); in assay [4], greater than 64 µg/mL.

Take `CC(CCc1cc(-c2ccc(F)c(F)c2F)no1)(C(=O)NO)S(C)(=O)=O` (racemic) [Example 36, N-hydroxy-2-methyl-2-(methylsulfonyl)-4-[3-(2,3,4-trifluorophenyl)isoxazol-5-yl]butanamide]: the IC50 in assay [1] (setting [5]) was 3.9 nM. Further, the MIC in assay [2] was 1 µg/mL (≈ 2.55 µM); in assay [3] it was 16 µg/mL (≈ 40.8 µM); in assay [4], greater than 64 µg/mL.

The molecule `Cc1ccc(-c2cc(CCC(C)(C(=O)NO)S(C)(=O)=O)on2)cc1` (racemic) [Example 38, N-hydroxy-2-methyl-4-[3-(4-methylphenyl)isoxazol-5-yl]-2-(methylsulfonyl)butanamide] showed an IC50 in assay [1] of 2.9 nM. Moreover, the MIC in assay [2] was 1 µg/mL (≈ 2.84 µM); in assay [3], 8 µg/mL (≈ 22.7 µM); in assay [4], greater than 64 µg/mL.

Take `CC(CCc1cc(-c2ccc(N3CCOCC3)c(F)c2)no1)(C(=O)NO)S(C)(=O)=O` (racemic) [Example 48, 4-[3-(3-fluoro-4-morpholin-4-ylphenyl)isoxazol-5-yl]-N-hydroxy-2-methyl-2-(methylsulfonyl)butanamide]: the IC50 in assay [1] (setting [5]) is 24.2 nM. Besides, the MIC in assay [2] is 32 µg/mL (≈ 72.5 µM); in assay [3] it was 32 µg/mL (≈ 72.5 µM); in assay [4], greater than 64 µg/mL.

On to `COc1ccccc1-c1cc(CCC(C)(C(=O)NO)S(C)(=O)=O)on1` (racemic) [Example 49, N-hydroxy-4-[3-(2-methoxyphenyl)isoxazol-5-yl]-2-methyl-2-(methylsulfonyl)butanamide], for which the half-inhibitory concentration (IC50) in assay [1] (setting [5]) was determined as 42.4 nM. The MIC in assay [2] is 32 µg/mL (≈ 86.9 µM); in assay [3], greater than 64 µg/mL; in assay [4], greater than 64 µg/mL.

With `COc1ccccc1OCc1cc(CCC(C)(C(=O)NO)S(C)(=O)=O)no1` (racemic) [Example 12, N-hydroxy-4-{5-[(2-methoxyphenoxy)methyl]isoxazol-3-yl}-2-methyl-2-(methylsulfonyl)butanamide], the half-maximal inhibitory concentration (IC50) in assay [1] (setting [5]) was 37.4 nM. In addition, the MIC in assay [2], in assay [3] and in assay [4] was greater than 64 µg/mL throughout.

As for `CC(CCc1cc(CC2(O)CCCCC2)on1)(C(=O)NO)S(C)(=O)=O` (racemic) [Example 17, N-hydroxy-4-{5-[(1-hydroxycyclohexyl)methyl]isoxazol-3-yl}-2-methyl-2-(methylsulfonyl)butanamide], the IC50 in assay [1] (setting [5]) is greater than 100 nM. Also, the MIC in assay [2], in assay [3] and in assay [4] was greater than 64 µg/mL in each case.

For the molecule `CCOC(C)(C)c1cc(CCC(C)(C(=O)NO)S(C)(=O)=O)on1` (racemic) [Example 31, 4-[3-(1-ethoxy-1-methylethyl)isoxazol-5-yl]-N-hydroxy-2-methyl-2-(methylsulfonyl)butanamide], the IC50 in assay [1] (setting [5]) is greater than 100 nM. Further, the MIC in assay [2], in assay [3] and in assay [4] was greater than 64 µg/mL throughout.

Regarding `COc1ccc(-c2cc(CCC(C)(C(=O)NO)S(C)(=O)=O)on2)cc1` (racemic) [Example 47, N-hydroxy-4-[3-(4-methoxyphenyl)isoxazol-5-yl]-2-methyl-2-(methylsulfonyl)butanamide], the IC50 in assay [1] (setting [5]) came out at 4.1 nM. Also, the values for the MIC in assay [2], in assay [3] and in assay [4] were 1 µg/mL (≈ 2.71 µM), 16 µg/mL (≈ 43.4 µM) and greater than 64 µg/mL, respectively.

In the case of `CC(CCc1cc(CCc2ccccc2)no1)(C(=O)NO)S(C)(=O)=O` (racemic) [Example 39, N-hydroxy-2-methyl-2-(methylsulfonyl)-4-[3-(2-phenylethyl)isoxazol-5-yl]butanamide], the IC50 in assay [1] (setting [5]) came out at 9.8 nM. For the same molecule, the MIC in assay [2] is 4 µg/mL (≈ 10.9 µM); in assay [3] it was 32 µg/mL (≈ 87.3 µM); in assay [4] it was greater than 64 µg/mL.

The values above are taken from patent publication US8748466B2, “Isoxazole derivatives useful as antibacterial agents” (Pfizer Inc., priority 2011, dated 2014).
